Data reported in US20040220267A1, “Derivatives of pentacyclic nortriterpene quinone methides as compounds useful in the treatment of inflammatory, neurodegenerative, and neoplastic diseases” (priority 2003, published 2004).
Read-outs that look alike come from different tables or passages of the source.

Tests used:
nitric oxide production = settings: cited from earlier work
Hsp70 = assay type: cell-based
protein aggregation = assay: In vitro Huntington Aggregation Assay; assay type: biochemical
NF-κB activation = settings: cited from earlier work
human leukemia HL-60 = settings: cited from earlier work; for rank order of potency: apoptosis induction in HL-60 and topoisomerase II inhibition, Nagase et al. 2003
topoisomerase II = settings: cited from earlier work
[1] = tested on: heat shock proteins (HSPs); settings: cited from earlier work
microglia = settings: cited from earlier work
TNF-α = settings: cited from earlier work
IL-1β = settings: cited from earlier work
inducible NO synthase = settings: cited from earlier work
[2] = tested on: constitutive NO synthases; settings: cited from earlier work
[3] = Cellular toxicity / cytotoxicity; assay type: cell-based

## N=C(N)NN [aminoguanidine]
Nitric oxide production
  IC50: 16000 nM

## CC1=C(O)C(=O)C=C2C1=CC=C1[C@@]2(C)CC[C@@]2(C)[C@@H]3C[C@](C)(C(=O)O)CC[C@]3(C)CC[C@]12C [celastrol, reference compound]
Hsp70; Dose 0.1 uM
  Hsp70 generation: .043
Hsp70; Dose 0.3 uM
  Hsp70 generation: .046
Hsp70; Dose 0.5 uM
  Hsp70 generation: .039
Hsp70; Dose 1.0 uM
  Hsp70 generation: .423
Hsp70; Dose 2.0 uM
  Hsp70 generation: 15.0
Hsp70; Dose 3.0 uM
  Hsp70 generation: 4.54
Hsp70; Dose 6 uM
  Hsp70 generation: .240
Hsp70; Dose 10 uM
  Hsp70 generation: .034
Protein aggregation
  inhibition of protein aggregation in the in vitro Huntington Aggregation assay: potent inhibitor
NF-κB activation
  IC50: 270 nM
Nitric oxide production
  IC50: 230 nM
Human leukemia HL-60
  rank order of potency: celastrol>etoposide>dihydrocelastrol
Human leukemia HL-60; human leukemia HL-60 model
  concentration inducing apoptosis: sub-micromolar concentrations
Topoisomerase II
  concentration inhibiting topoisomerase II: sub-micromolar concentrations
[1]
  concentration enhancing cellular HSP production: sub-micromolar concentrations
microglia
  inhibition of microglial activation: inhibits
TNF-α
  inhibition of production of TNF-α: inhibits
IL-1β
  inhibition of production of IL-1β: inhibits
Inducible NO synthase
  inhibition of expression of inducible NO synthase: inhibits
[2]
  inhibition of constitutive NO synthases: does not inhibit

## Cc1c(O)c(O)cc2c1CC=C1[C@@]2(C)CC[C@@]2(C)[C@@H]3C[C@](C)(C(=O)O)CC[C@]3(C)CC[C@]12C [dihydrocelastrol]
Hsp70; Dose 0.1 uM
  Hsp70 generation: .051
Hsp70; Dose 0.3 uM
  Hsp70 generation: .036
Hsp70; Dose 0.5 uM
  Hsp70 generation: .033
Hsp70; Dose 1.0 uM
  Hsp70 generation: .052
Hsp70; Dose 2.0 uM
  Hsp70 generation: .049
Hsp70; Dose 3.0 uM
  Hsp70 generation: .117
Hsp70; Dose 6 uM
  Hsp70 generation: 3.37
Hsp70; Dose 10 uM
  Hsp70 generation: .044
Protein aggregation
  inhibition of protein aggregation in the in vitro Huntington Aggregation assay: potent
Human leukemia HL-60
  rank order of potency: celastrol>etoposide>dihydrocelastrol
Human leukemia HL-60; human leukemia HL-60 model
  activity in inducing apoptosis compared with celastrol and etoposide: weaker activity
Topoisomerase II
  activity in inhibiting topoisomerase II compared with celastrol and etoposide: weaker activity

## COC(=O)[C@]1(C)CC[C@]2(C)CC[C@]3(C)C4=CCc5c(cc(OC(C)=O)c(OC(C)=O)c5C)[C@]4(C)CC[C@@]3(C)[C@@H]2C1 [dihydropristimerin diacetate]
Hsp70; Dose 0.1 uM
  Hsp70 generation: .038
Hsp70; Dose 0.3 uM
  Hsp70 generation: .048
Hsp70; Dose 0.5 uM
  Hsp70 generation: .042
Hsp70; Dose 1.0 uM
  Hsp70 generation: .049
Hsp70; Dose 2.0 uM
  Hsp70 generation: .047
Hsp70; Dose 3.0 uM
  Hsp70 generation: .049
Hsp70; Dose 6 uM
  Hsp70 generation: .246
Hsp70; Dose 10 uM
  Hsp70 generation: .273

## COc1cc([C@@H]2c3cc4c(cc3[C@@H](O[C@@H]3O[C@@H]5CO[C@@H](C)O[C@H]5[C@H](O)[C@H]3O)[C@H]3COC(=O)[C@H]23)OCO4)cc(OC)c1O [etoposide]
Human leukemia HL-60
  rank order of potency: celastrol>etoposide>dihydrocelastrol

## COC(=O)[C@]1(C)CC[C@]2(C)CC[C@]3(C)C4=CC=C5C(=CC(=O)C(O)=C5C)[C@]4(C)CC[C@@]3(C)[C@@H]2C1 [pristimerin, reference compound]
Hsp70; Dose 0.1 uM
  Hsp70 generation: .30
Hsp70; Dose 0.3 uM
  Hsp70 generation: .056
Hsp70; Dose 0.5 uM
  Hsp70 generation: .331
Hsp70; Dose 1.0 uM
  Hsp70 generation: 2.84
Hsp70; Dose 2.0 uM
  Hsp70 generation: .094
Hsp70; Dose 3.0 uM
  Hsp70 generation: .035
Hsp70; Dose 6 uM
  Hsp70 generation: .033
Hsp70; Dose 10 uM
  Hsp70 generation: 1.25

## dihydrocelastrol diacetate
Hsp70
  potency compared with celastrol: at least equivalent to celastrol in potency
Hsp70; Dose 0.1 uM
  Hsp70 generation: .041
Hsp70; Dose 0.3 uM
  Hsp70 generation: .039
Hsp70; Dose 0.5 uM
  Hsp70 generation: .041
Hsp70; Dose 1.0 uM
  Hsp70 generation: .071
Hsp70; Dose 2.0 uM
  Hsp70 generation: 12.3
Hsp70; Dose 3.0 uM
  Hsp70 generation: 2.61
Hsp70; Dose 6 uM
  Hsp70 generation: .040
Hsp70; Dose 10 uM
  Hsp70 generation: .096
Protein aggregation
  inhibition of protein aggregation in the in vitro Huntington Aggregation assay: potent
[3]
  cytotoxicity compared with celastrol: reduced cytotoxicity

## dihydropristimerin
Hsp70; Dose 0.1 uM
  Hsp70 generation: .050
Hsp70; Dose 0.3 uM
  Hsp70 generation: .039
Hsp70; Dose 0.5 uM
  Hsp70 generation: .037
Hsp70; Dose 1.0 uM
  Hsp70 generation: .043
Hsp70; Dose 2.0 uM
  Hsp70 generation: .042
Hsp70; Dose 3.0 uM
  Hsp70 generation: .045
Hsp70; Dose 6 uM
  Hsp70 generation: .102
Hsp70; Dose 10 uM
  Hsp70 generation: .034
Protein aggregation
  inhibition of protein aggregation in the in vitro Huntington Aggregation assay: potent
